{"source": "paper PMC9611887", "about": "“Chitosan as a Functional Carrier for the Local Delivery Anti-Inflammatory Systems Containing Scutellariae baicalensis radix Extract” (Pharmaceutics, 2022)", "target": "T1, hyaluronidase", "T1 construct": "gene SPAM1", "experiment": "turbidimetric assay, CTAB precipitation of undigested hyaluronic acid, absorbance […] nm", "type": "biochemical", "details": "hyaluronic acid 0.3 mg/mL, acetate buffer pH 4.5, bovine albumin and NaCl present, 37 °C, 10 min preincubation, 45 min reaction", "data": [{"smiles": "O=C(O)[C@H]1O[C@@H](Oc2cc3oc(-c4ccccc4)cc(=O)c3c(O)c2O)[C@H](O)[C@@H](O)[C@@H]1O", "note": "[Baicalin]", "values": [{"measurement": "Ability to Inhibit the Enzyme Hyaluronidase IC50", "value": "1210 ± 60", "unit": "µg/mL"}]}]}
